Results taken from US9850283B2, “Macrocyclic inhibitors of the PD-1/PD-L1 and CD80(B7-1)/PD-L1 protein/protein interactions” (BRISTOL-MYERS SQUIBB COMPANY, priority 2013, dated 2017).
Read-outs that look alike come from different tables or passages of the source. Positions of bridges follow the written chain, without caps; N, C: chain ends. Non-standard residues stand in square brackets, D forms with d. Residues, ends and D or L forms follow the SMILES beside them. ξ: configuration not given here. *: point of attachment. Phe(3,4,5-F3) = N[C@@H](Cc1cc(F)c(F)c(F)c1)C(=O)O; Bip(2'-Me) = Cc1ccccc1-c1ccc(C[C@H](N)C(=O)O)cc1; Phe(3,4-Cl2) = N[C@@H](Cc1ccc(Cl)c(Cl)c1)C(=O)O; Phe(4-NH2) = Nc1ccc(C[C@H](N)C(=O)O)cc1; Hyp = O=C(O)[C@@H]1C[C@@H](O)CN1; NMeF = CN[C@@H](Cc1ccccc1)C(=O)O; NMehSer = CN[C@@H](CCO)C(=O)O; NMeNle = CCCC[C@H](NC)C(=O)O; NMeS = CN[C@@H](CO)C(=O)O; ξR = N=C(N)NCCCC(N)C(=O)O; NMeA = CN[C@@H](C)C(=O)O; Orn = NCCC[C@H](N)C(=O)O; ξP = O=C(O)C1CCCN1; Bn = c1ccc(C*)cc1; ξC = NC(CS)C(=O)O; ξS = NC(CO)C(=O)O; Sar = CNCC(=O)O

What was measured:
[1] = biological target: T1, Human PD-L1/PD-1 (Homo sapiens, UniProt Q9NZQ7); assay: HTRF PD-1-Ig/PD-L1-His binding assay (human PD-L1)
T1 construct: made in house; host or cells: HEK293T
Procedure, shortened: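 Readout: time-resolved FRET between Eu cryptate-labeled anti-Ig (1 nM final) and APC-labeled anti-His (20 nM final) antibodies. These detect interaction of Fc-fused PD-1 with His-tagged human PD-L1 in dPBS containing 0.1% BSA and 0.05% Tween-20.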

[2] = biological target: T2, LK35.2-hPD-L1 cells / PE-labeled PD-1-Ig (Homo sapiens, UniProt Q9NZQ7); assay: LK35.2-hPD-L1 cell binding high-content screening assay; format: cell-based
T2 construct: expressed in transfected cells; host or cells: LK35.2 mouse B cell line
Procedure, shortened: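 Mouse LK35.2 B cells stably over-expressing human PD-L1, cultured overnight, treated with compound plus PE-labeled human PD-1-Ig (1 nM final) in RPMI/10% FCS for 1 h at 37 °C. After washing, bound fluorescence quantified by high-content imaging.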

[3] = cluster symbol, read-out: HTRF IC50 cluster
[4] = cell binding assay, cell line not given, cluster symbol, read-out: CBA IC50 cluster
[5] = cluster symbol, cell line of CBA not given (LK35.2-hPD-L1 or 293T-hPD-L1), read-out: CBA IC50 cluster

T1 sequence (Q9NZQ7 with tags, fused parts or gaps): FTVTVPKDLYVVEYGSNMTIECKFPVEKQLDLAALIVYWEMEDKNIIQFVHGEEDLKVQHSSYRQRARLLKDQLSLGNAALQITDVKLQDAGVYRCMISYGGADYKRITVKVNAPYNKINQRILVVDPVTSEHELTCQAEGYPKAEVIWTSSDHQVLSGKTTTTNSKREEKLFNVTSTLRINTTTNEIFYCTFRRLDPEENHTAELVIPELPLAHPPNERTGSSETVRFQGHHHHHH
T2 sequence (Q9NZQ7 19-290): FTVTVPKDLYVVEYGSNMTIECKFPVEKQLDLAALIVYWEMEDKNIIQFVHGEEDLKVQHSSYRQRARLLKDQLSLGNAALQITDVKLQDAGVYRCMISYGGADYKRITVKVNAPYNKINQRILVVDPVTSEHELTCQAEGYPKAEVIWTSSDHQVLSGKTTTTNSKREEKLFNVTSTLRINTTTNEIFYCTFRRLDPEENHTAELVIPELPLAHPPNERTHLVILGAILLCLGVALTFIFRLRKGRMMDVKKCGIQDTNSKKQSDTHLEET

## CCCC[C@H]1C(=O)N(C)[C@@H](CCCC)C(=O)N[C@@H](CCCNC(=N)N)C(=O)NC(C(=O)NCC(N)=O)CSCC(=O)N[C@@H](Cc2ccc(O)cc2)C(=O)N(C)[C@@H](C)C(=O)N[C@@H](CC(N)=O)C(=O)N2CCC[C@H]2C(=O)N[C@@H](CO)C(=O)N[C@@H](CC(C)C)C(=O)N2CCC[C@H]2C(=O)N[C@@H](Cc2c[nH]c3ccccc23)C(=O)N[C@@H](CO)C(=O)N[C@@H](Cc2c[nH]c3ccccc23)C(=O)N1C (stereo partly shown) [Example 9073] ({CH2CO}-Y[NMeA]NPSLPWSW[NMeNle][NMeNle]R[ξC]G-NH2; thioether N-14)
[1]; [3]
  IC50: 0.385 to 6.74 nM
[2]; [4]
  IC50: 0.158 to 4.71 nM

## CCCC[C@H]1C(=O)N(C)CC(=O)N[C@@H](CC(N)=O)C(=O)N[C@@H](C(C)C)C(=O)N(C)[C@@H](Cc2ccccc2)C(=O)N[C@@H](Cc2ccc(O)cc2)C(=O)N(C)CC(=O)N[C@@H](Cc2c[nH]c3ccccc23)C(=O)N[C@@H](Cc2ccc(O)cc2)C(=O)N[C@@H](CCCN)C(=O)N[C@H](C(=O)NCC(N)=O)CSCC(=O)N[C@@H](Cc2cc(F)c(F)c(F)c2)C(=O)N(C)[C@@H](Cc2ccccc2)C(=O)N1C [Example 3181] ({CH2CO}-[Phe(3,4,5-F3)][NMeF][NMeNle][Sar]NV[NMeF]Y[Sar]WY[Orn]CG-NH2; thioether N-13)
[1]; [3]
  IC50: 0.385 to 6.74 nM
[2]; [5]
  IC50: 0.158 to 4.71 nM

## CCCC[C@H]1C(=O)N(C)CC(=O)N[C@@H](CC(=O)O)C(=O)N[C@@H](C(C)C)C(=O)N(C)[C@@H](Cc2ccccc2)C(=O)N[C@@H](Cc2ccc(O)cc2)C(=O)N(C)CC(=O)N[C@@H](Cc2c[nH]c3ccccc23)C(=O)N[C@@H](Cc2ccc(N)cc2)C(=O)N[C@@H](CC(C)C)C(=O)N[C@H](C(=O)NCC(N)=O)CSCC(=O)N[C@@H](Cc2ccccc2)C(=O)N(C)[C@@H](Cc2ccccc2)C(=O)N1C [Example 3140] ({CH2CO}-F[NMeF][NMeNle][Sar]DV[NMeF]Y[Sar]W[Phe(4-NH2)]LCG-NH2; thioether N-13)
[1]; [3]
  IC50: 6.76 to 30.3 nM
[2]; [5]
  IC50: 4.78 to 72.9 nM

## CCCC[C@H]1C(=O)N[C@@H](CCCNC(=N)N)C(=O)NC(C(=O)NCC(N)=O)CSCC(=O)N[C@@H](Cc2ccc(O)cc2)C(=O)N(C)[C@@H](C)C(=O)N[C@@H](CC(=O)O)C(=O)N2CCC[C@H]2C(=O)N[C@@H](Cc2cnc[nH]2)C(=O)N[C@@H](CC(C)C)C(=O)N2CCC[C@H]2C(=O)N[C@@H](Cc2c[nH]c3ccccc23)C(=O)N[C@@H](CO)C(=O)N[C@@H](Cc2c[nH]c3ccccc23)C(=O)N(C)[C@@H](CCOC)C(=O)N1C (stereo partly shown) [Example 9010] ({CH2CO}-Y[NMeA]DPHLPWSW[NMehSer](Me)[NMeNle]R[ξC]G-NH2; thioether N-14)
[1]; [3]
  IC50: 6.76 to 30.3 nM
[2]; [4]
  IC50: 4.78 to 72.9 nM

## CCCC[C@H]1C(=O)N(C)CC(=O)N[C@@H](CC(=O)O)C(=O)N[C@@H](C(C)C)C(=O)N(C)[C@@H](Cc2ccccc2)C(=O)N[C@@H](CCC(=O)O)C(=O)N(C)[C@@H](CCC(=O)O)C(=O)N[C@@H](Cc2c[nH]c3ccccc23)C(=O)N[C@@H](Cc2ccc(O)cc2)C(=O)N[C@@H](CCC(=O)O)C(=O)N[C@H](C(=O)NCC(N)=O)CSCC(=O)N[C@@H](Cc2ccccc2)C(=O)N(C)[C@@H](Cc2ccccc2)C(=O)N1C [Example 3075] (HELM PEPTIDE1{[O=C(C[*:3])[*:2]].F.[meF].[CCCC[C@@H](C(=O)[*:2])N(C)[*:1]].[Sar].D.V.[meF].E.[meE].W.Y.E.C.G.[am]}$PEPTIDE1,PEPTIDE1,1:R3-14:R3$$$V2.0)
[1]; [3]
  IC50: > 30.5 nM
[2]; [5]
  IC50: > 74.3 nM

## CC(C)C[C@@H]1NC(=O)[C@H](Cc2cnc[nH]2)NC(=O)[C@@H]2CCCN2C(=O)[C@H](CC(N)=O)NC(=O)[C@H](C)N(C)C(=O)[C@H](Cc2ccccc2)NC(=O)CSC[C@@H](C(=O)NCC(N)=O)NC(=O)[C@H](CCCNC(=N)N)NC(=O)[C@H](COCc2ccccc2)N(C)C(=O)[C@H](C)N(C)C(=O)[C@H](Cc2c[nH]c3ccccc23)NC(=O)[C@H](CO)NC(=O)[C@H](Cc2c[nH]c3ccccc23)NC(=O)CN(C)C1=O [Example 6015] ({CH2CO}-F[NMeA]NPHL[Sar]WSW[NMeA][NMeS](Bn)RCG-NH2; thioether N-14)
[1]; [3]
  IC50: > 30.5 nM
[2]; [4]
  IC50: 4.78 to 72.9 nM

## CCCC[C@H]1C(=O)N(C)CC(=O)N[C@@H](CC(=O)O)C(=O)N[C@@H](C(C)C)C(=O)N(C)[C@@H](Cc2ccccc2)C(=O)N[C@@H](Cc2ccc(O)cc2)C(=O)N(C)CC(=O)N[C@@H](Cc2c[nH]c3ccccc23)C(=O)N[C@@H](Cc2ccc(Cl)c(Cl)c2)C(=O)N[C@@H](CC(C)C)C(=O)N[C@H](C(=O)NCC(N)=O)CSCC(=O)N[C@@H](Cc2ccccc2)C(=O)N(C)[C@@H](Cc2ccccc2)C(=O)N1C [Example 3100] ({CH2CO}-F[NMeF][NMeNle][Sar]DV[NMeF]Y[Sar]W[Phe(3,4-Cl2)]LCG-NH2; thioether N-13)
[1]; [3]
  IC50: > 30.5 nM
[2]; [5]
  IC50: > 74.3 nM

## CCCC[C@H]1C(=O)N(C)[C@@H](CCCC)C(=O)N[C@@H](C)C(=O)N[C@H](C(=O)NCC(N)=O)CSCC(=O)N[C@@H](Cc2ccc(O)cc2)C(=O)N(C)[C@@H](C)C(=O)N[C@@H](CC(=O)O)C(=O)N2CCC[C@H]2C(=O)N[C@@H](Cc2cnc[nH]2)C(=O)N[C@@H](CCCN)C(=O)N2C[C@H](O)C[C@H]2C(=O)N[C@@H](Cc2c[nH]c3ccccc23)C(=O)N[C@@H](CO)C(=O)N[C@@H](Cc2c[nH]c3ccccc23)C(=O)N1C [Example 1140] ({CH2CO}-Y[NMeA]DPH[Orn][Hyp]WSW[NMeNle][NMeNle]ACG-NH2; thioether N-14)
[1]; [3]
  IC50: 0.385 to 6.74 nM
[2]; [5]
  IC50: 0.158 to 4.71 nM

## CCCC[C@H]1C(=O)N(C)[C@@H](CCCC)C(=O)N[C@@H](CCC(=O)O)C(=O)N[C@H](C(=O)NCC(N)=O)CSCC(=O)N[C@@H](Cc2ccc(O)cc2)C(=O)N(C)[C@@H](C)C(=O)N[C@@H](CC(N)=O)C(=O)N2CCC[C@H]2C(=O)N[C@@H](Cc2c[nH]cn2)C(=O)N[C@@H](CCCCN)C(=O)N2C[C@H](O)C[C@H]2C(=O)N[C@@H](Cc2c[nH]c3ccccc23)C(=O)N[C@@H](CCCCN)C(=O)N[C@@H](Cc2c[nH]c3ccccc23)C(=O)N1C [Example 5100] ({CH2CO}-Y[NMeA]NPHK[Hyp]WKW[NMeNle][NMeNle]ECG-NH2; thioether N-14)
[1]; [3]
  IC50: 6.76 to 30.3 nM
[2]; [4]
  IC50: 0.158 to 4.71 nM

## CCCC[C@H]1C(=O)N(C)[C@@H](CCCC)C(=O)NC(CCCNC(=N)N)C(=O)NC(C(=O)NCC(N)=O)CSCC(=O)N[C@@H](Cc2ccccc2)C(=O)N(C)[C@@H](C)C(=O)N[C@@H](CC(N)=O)C(=O)N2CCCC2C(=O)N[C@@H](Cc2cnc[nH]2)C(=O)N[C@@H](CC(C)C)C(=O)N(C)CC(=O)N[C@@H](Cc2c[nH]c3ccccc23)C(=O)NC(CO)C(=O)N[C@@H](Cc2ccc(-c3ccccc3C)cc2)C(=O)N1C (stereo partly shown) [Example 1030] ({CH2CO}-F[NMeA]N[ξP]HL[Sar]W[ξS][Bip(2'-Me)][NMeNle][NMeNle][ξR][ξC]G-NH2; thioether N-14)
[1]; [3]
  IC50: > 30.5 nM
[2]; [5]
  IC50: > 74.3 nM

## CCCC[C@H]1C(=O)N(C)CC(=O)N[C@@H](CC(=O)O)C(=O)N[C@@H](CO)C(=O)N(C)[C@@H](Cc2ccccc2)C(=O)N[C@@H](Cc2ccc(O)cc2)C(=O)N(C)CC(=O)N[C@@H](Cc2c[nH]c3ccccc23)C(=O)N[C@@H](Cc2ccc(O)cc2)C(=O)N[C@@H](CC(C)C)C(=O)N[C@H](C(=O)NCC(N)=O)CSCC(=O)N[C@@H](Cc2ccccc2)C(=O)N(C)[C@@H](Cc2ccccc2)C(=O)N1C [Example 3156] (HELM PEPTIDE1{[O=C(C[*:3])[*:2]].F.[meF].[CCCC[C@@H](C(=O)[*:2])N(C)[*:1]].[Sar].D.S.[meF].Y.[Sar].W.Y.L.C.G.[am]}$PEPTIDE1,PEPTIDE1,1:R3-14:R3$$$V2.0)
[1]; read-out: HTRF IC50 value
  IC50: 439 nM
[2]; cell line of CBA not given (LK35.2-hPD-L1 or 293T-hPD-L1), read-out: CBA IC50 value
  IC50: 1870 nM
